Source: patent US6858640B2, “Tricyclic indole compounds having affinity for serotonin receptor” (Shionogi & Co., Ltd., priority 2000, dated 2005)
Counter-ions that a name gives are not always drawn. Like-named read-outs stand apart in the source and are kept apart here.

Key:
5HT1A = target: T1, 5HT1A (Rattus norvegicus, UniProt P19327); assay: radioligand binding to serotonin receptor, cell membrane sample, Ki by Cheng-Prusoff
T1 construct: prepared from brain of rats or HEK293 cells, which expressed the receptor; from tissue; host or cells: rat brain membranes
T1 sequence (P19327 1-422): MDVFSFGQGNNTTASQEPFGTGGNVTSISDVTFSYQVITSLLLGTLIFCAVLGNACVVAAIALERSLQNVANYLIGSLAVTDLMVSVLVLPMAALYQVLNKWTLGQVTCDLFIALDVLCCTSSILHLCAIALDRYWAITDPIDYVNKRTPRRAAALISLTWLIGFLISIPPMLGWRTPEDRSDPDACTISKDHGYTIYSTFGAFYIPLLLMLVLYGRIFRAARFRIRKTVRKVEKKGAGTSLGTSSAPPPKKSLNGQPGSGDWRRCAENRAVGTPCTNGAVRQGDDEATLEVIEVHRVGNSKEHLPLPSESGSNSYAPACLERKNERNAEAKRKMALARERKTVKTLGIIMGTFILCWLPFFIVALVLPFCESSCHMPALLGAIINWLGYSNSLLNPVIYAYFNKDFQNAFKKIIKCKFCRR
Experimental: (§1) A mixture of radioactive ligands and some cardinal numbers of test compounds was incubated with a sample of cell membrane, which was prepared from brain of rats or HEK293 cells, which expressed the receptor, under the following conditions. Then, the sample was filtered by suction on a Whatman GF/C. Radioactivity on the filter was encountered by the use of a liquid scintillation counter. 50% Inhibitory concentration values (IC50 values) of each selective binding were calculated for test compounds and the Ki value was obtained by applying an equation of Cheng-Prusoff [Biochem. Pharmacol. 22 (1973) 3099-3108] Ki=IC50/(1+[L]/Kd).

5HT6 = target: T2, 5HT6 (Homo sapiens, UniProt P50406); assay: as above
T2 construct: expressed in transfected cells; host or cells: HEK293
T2 sequence (P50406 whole entry, species assumed): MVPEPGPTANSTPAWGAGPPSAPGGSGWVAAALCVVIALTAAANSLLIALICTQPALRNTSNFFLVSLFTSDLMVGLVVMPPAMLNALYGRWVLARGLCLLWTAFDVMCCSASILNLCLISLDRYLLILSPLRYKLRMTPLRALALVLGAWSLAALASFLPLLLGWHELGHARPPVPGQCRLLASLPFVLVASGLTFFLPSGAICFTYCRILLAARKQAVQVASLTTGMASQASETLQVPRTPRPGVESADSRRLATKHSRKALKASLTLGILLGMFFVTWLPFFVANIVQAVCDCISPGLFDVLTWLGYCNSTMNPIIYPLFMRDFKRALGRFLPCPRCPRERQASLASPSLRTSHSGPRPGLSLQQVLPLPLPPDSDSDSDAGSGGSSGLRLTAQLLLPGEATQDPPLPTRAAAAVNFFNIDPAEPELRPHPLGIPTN
Experimental: as §1

[1] = rat hippocampus membranes, 1 nM [3H] 8-OH-DPAT, 25° C. 30 min, read-out: Ki value (nM) ±SE 5-HT1A
[2] = rat 5-HT6 (HEK293), 8 nM [3H] 5HT 25° C. 120 min or 4 nM [3H] LSD 37° C. 60 min, read-out: Ki value (nM) ±SE 5-HT6

SMILES	melting point	Ki (5HT6)	further results
N[C@@H]1COc2cccc3[nH]cc(c23)C1	202 to 203 °C	–	–
c1cc2c3c(c[nH]c3c1)CC1(CO2)OCCO1	200 to 202 °C	–	–
OC1COc2cccc3[nH]cc(c23)C1 (stereo not shown)	169 to 170 °C	–	–
CNC1COc2cccc3[nH]cc(c23)C1 (stereo not shown) (as salt: oxalate) [Compound 19-2]	112 to 116 °C	–	–
CN(C)C1COc2cccc3c2c(cn3S(=O)(=O)c2ccc(Cl)cc2)C1 (stereo not shown) (as salt: oxalate) [Compound 20-6]	114 to 118 °C (dec.)	–	–
CN(C)C1COc2cccc3c2c(cn3S(=O)(=O)c2cccs2)C1 (stereo not shown) (as salt: oxalate) [Compound 20-9]	142 to 144 °C (dec.)	–	–
CN(C)C1COc2cccc3c2c(cn3S(=O)(=O)c2ccc(C(F)(F)F)cc2)C1 (stereo not shown) (as salt: oxalate) [Compound 20-10]	119 to 122 °C (dec.)	–	–
CN(C)C1COc2cccc3c2c(cn3S(=O)(=O)c2ccc(Br)cc2)C1 (stereo not shown) (as salt: oxalate) [Compound 20-11]	147 to 150 °C (dec.)	–	–
CN(C)C1COc2cccc3c2c(cn3S(=O)(=O)c2cccc(Br)c2)C1 (stereo not shown) (as salt: oxalate) [Compound 20-12]	168 to 171 °C (dec.)	–	–
CN(C)C1COc2cccc3c2c(cn3S(=O)(=O)c2ccccc2Br)C1 (stereo not shown) (as salt: oxalate) [Compound 20-13]	173 to 176 °C (dec.)	–	–
COc1ccc(S(=O)(=O)n2cc3c4c(cccc42)OCC(N(C)C)C3)cc1 (stereo not shown) (as salt: oxalate) [Compound 20-14]	140 to 142 °C (dec.)	–	–
COc1ccc(S(=O)(=O)n2cc3c4c(cccc42)OCC(N(C)C)C3)cc1OC (stereo not shown) (as salt: oxalate) [Compound 20-15]	123 to 126 °C (dec.)	–	–
CN(C)C1COc2cccc3c2c(cn3S(=O)(=O)/C=C/c2ccccc2)C1 (stereo not shown) (as salt: oxalate) [Compound 20-16]	169 to 171 °C (dec.)	–	–
CN(C)C1COc2cccc3c2c(cn3S(=O)(=O)c2cc(Cl)ccc2Cl)C1 (stereo not shown) (as salt: oxalate) [Compound 20-17]	161 to 163 °C (dec.)	–	–
CN(C)C1COc2cccc3c2c(cn3S(=O)(=O)c2ccc(F)cc2)C1 (stereo not shown) (as salt: oxalate) [Compound 20-19]	143 to 144 °C (dec.)	–	–
CN(C)C1COc2cccc3c2c(cn3S(=O)(=O)c2cc(F)c(Br)cc2F)C1 (stereo not shown) (as salt: oxalate) [Compound 20-20]	128 to 131 °C (dec.)	–	–
CN(C)C1COc2cccc3c2c(cn3S(=O)(=O)c2ccc(Cl)s2)C1 (stereo not shown) (as salt: oxalate) [Compound 20-21]	154 to 156 °C (dec.)	–	–
CN(C)C1COc2cccc3c2c(cn3S(=O)(=O)c2ccc(F)cc2F)C1 (stereo not shown) (as salt: oxalate) [Compound 20-22]	163 to 164 °C (dec.)	–	–
COc1ccc(OC)c(S(=O)(=O)n2cc3c4c(cccc42)OCC(N(C)C)C3)c1 (stereo not shown) (as salt: oxalate) [Compound 20-23]	147 to 150 °C (dec.)	–	–

SMILES	melting point	Ki (5HT6)	further results
CN(C)C1COc2cccc3c2c(cn3S(=O)(=O)c2ccc(-c3ccon3)s2)C1 (stereo not shown) (as salt: oxalate) [Compound 20-25]	113 to 115 °C (dec.)	–	–
CNC1COc2cccc3c2c(cn3S(=O)(=O)c2ccccc2)C1 (stereo not shown) (as salt: oxalate) [Compound 36-2]	208 to 213 °C (dec.)	–	–
NC1COc2cccc3[nH]cc(c23)C1 (stereo not shown) [Compound 8-1, 2,7,8,9-Tetrahydro-6-oxa-2-azabenzo[c,d]azulen-8-ylamine]	172 to 173 °C	–	Ki (5HT1A; [1]): 36 nM
CN(C)C1CC(=O)c2cccc3[nH]cc(c23)C1 (stereo not shown) [Compound 19-1, Dimethyl-(2,7,8,9-tetrahydro-6-oxo-2-azabenzo[cd]azulen-8-yl)amine]	–	–	Ki (5HT1A; [1]): 81 nM
CNC1COc2cccc3[nH]cc(c23)C1 (stereo not shown) [Compound 19-2]	–	97 nM	Ki (5HT1A): 23 nM
CCCN(CCC)C1COc2cccc3[nH]cc(c23)C1 (stereo not shown) [Compound 19-5]	60 to 61 °C	–	Ki (5HT1A): 10 nM
C=CCNC1COc2cccc3[nH]cc(c23)C1 (stereo not shown) [Compound 19-7]	112 to 113 °C	–	Ki (5HT1A): 19 nM
c1cc2c3c(c[nH]c3c1)CC(N1CCCC1)CO2 (stereo not shown) [Compound 19-10]	137 to 139 °C	–	Ki (5HT1A): 2.5 nM
c1cc2c3c(c[nH]c3c1)CC(NC1CC1)CO2 (stereo not shown) [Compound 19-19]	130 to 131 °C	–	Ki (5HT1A): 3.8 nM
CN(C)C1CC(=O)c2cccc3c2c(cn3S(=O)(=O)c2ccccc2)C1 (stereo not shown) [Compound 20-1, (2-Benzenesulfonyl-2,7,8,9-tetrahydro-6-oxo-2-azabenzo[cd]azulen-8-yl)dimethylamine oxalate]	–	1.7 nM	–
CN(C)C1COc2cccc3c2c(cn3S(=O)(=O)c2cccc3ccccc23)C1 (stereo not shown) [Compound 20-5]	148 to 149 °C	0.49 nM	–
CN(C)C1COc2cccc3c2c(cn3S(=O)(=O)c2ccc(Cl)cc2)C1 (stereo not shown) [Compound 20-6]	–	–	Ki (5HT6; [2]): 2.7 nM
CN(C)C1COc2cccc3c2c(cn3S(=O)(=O)c2cccs2)C1 (stereo not shown) [Compound 20-9]	–	78 nM	Ki (5HT1A): 86 nM
CN(C)C1COc2cccc3c2c(cn3S(=O)(=O)c2ccc(C(F)(F)F)cc2)C1 (stereo not shown) [Compound 20-10]	–	45 nM	Ki (5HT1A): 95 nM
CN(C)C1COc2cccc3c2c(cn3S(=O)(=O)c2ccc(Br)cc2)C1 (stereo not shown) [Compound 20-11]	–	5.7 nM	–
CN(C)C1COc2cccc3c2c(cn3S(=O)(=O)c2cccc(Br)c2)C1 (stereo not shown) [Compound 20-12]	–	2.7 nM	–
CN(C)C1COc2cccc3c2c(cn3S(=O)(=O)c2ccccc2Br)C1 (stereo not shown) [Compound 20-13]	–	3.9 nM	–
COc1ccc(S(=O)(=O)n2cc3c4c(cccc42)OCC(N(C)C)C3)cc1 (stereo not shown) [Compound 20-14]	–	22 nM	–
COc1ccc(S(=O)(=O)n2cc3c4c(cccc42)OCC(N(C)C)C3)cc1OC (stereo not shown) [Compound 20-15]	–	–	Ki (5HT6; [2]): 29 nM

SMILES	melting point	Ki (5HT6)	further results
CN(C)C1COc2cccc3c2c(cn3S(=O)(=O)/C=C/c2ccccc2)C1 (stereo not shown) [Compound 20-16]	–	22 nM	–
CN(C)C1COc2cccc3c2c(cn3S(=O)(=O)c2cc(Cl)ccc2Cl)C1 (stereo not shown) [Compound 20-17]	–	29 nM	–
CN(C)C1COc2c(Br)ccc3c2c(cn3S(=O)(=O)c2ccccc2)C1 (stereo not shown) [Compound 20-18]	89 to 90 °C	22 nM	–
CN(C)C1COc2cccc3c2c(cn3S(=O)(=O)c2ccc(F)cc2)C1 (stereo not shown) [Compound 20-19]	–	12 nM	–
CN(C)C1COc2cccc3c2c(cn3S(=O)(=O)c2cc(F)c(Br)cc2F)C1 (stereo not shown) [Compound 20-20]	–	–	Ki (5HT6; [2]): 11 nM
CN(C)C1COc2cccc3c2c(cn3S(=O)(=O)c2ccc(Cl)s2)C1 (stereo not shown) [Compound 20-21]	–	–	Ki (5HT6; [2]): 2.7 nM
CN(C)C1COc2cccc3c2c(cn3S(=O)(=O)c2ccc(F)cc2F)C1 (stereo not shown) [Compound 20-22]	–	–	Ki (5HT6; [2]): 26 nM
COc1ccc(OC)c(S(=O)(=O)n2cc3c4c(cccc42)OCC(N(C)C)C3)c1 (stereo not shown) [Compound 20-23]	–	–	Ki (5HT6; [2]): 9.9 nM
COc1cccc(S(=O)(=O)n2cc3c4c(cccc42)OCC(N(C)C)C3)c1 (stereo not shown) [Compound 20-24]	103 to 104 °C	3.2 nM	–
CN(C)C1COc2cccc3c2c(cn3S(=O)(=O)c2ccc(-c3ccon3)s2)C1 (stereo not shown) [Compound 20-25]	–	–	Ki (5HT6; [2]): 36 nM
CN(C)C1COc2cccc3[nH]c(Br)c(c23)C1 (stereo not shown) [Compound 21, (1-Bromo-2,7,8,9-tetrahydro-6-oxa-2-azabenzo[cd]azulen-8-yl)dimethylamine]	170 to 172 °C	–	Ki (5HT1A; [1]): 14 nM
O=S(=O)(c1ccccc1)n1cc2c3c(cccc31)OCC(N1CCCC1)C2 (stereo not shown) [Compound 36-1, 2-Benzenesulfonyl-8-pyrrolidin-1-yl-2,7,8,9-tetrahydro-6-oxa-2-azabenzo[cd]azulene]	–	65 nM	Ki (5HT1A; [1]): 29 nM
CNC1COc2cccc3c2c(cn3S(=O)(=O)c2ccccc2)C1 (stereo not shown) [Compound 36-2]	–	8.5 nM	–
CCc1ccc2[nH]cc3c2c1OCC(N(C)C)C3 (stereo not shown) [Compound 41, (5-Ethyl-2,7,8,9-tetrahydro-6-oxa-2-azabenzo[cd]azulen-8-yl)dimethylamine]	–	–	Ki (5HT1A; [1]): 57 nM
CN(C)C1COc2c(C=O)ccc3[nH]cc(c23)C1 (stereo not shown) [Compound 46-1, 8-Dimethylamino-2,7,8,9-tetrahydro-6-oxa-2-azabenzo[cd]-azulene-5-carbaldehyde]	–	28 nM	–
CSc1ccc2[nH]cc3c2c1OCC(N(C)C)C3 (stereo not shown) [Compound 46-3]	112 to 113 °C	–	Ki (5HT1A): 18 nM
CN(C)C1COc2c(C=NO)ccc3[nH]cc(c23)C1 (stereo not shown) [Compound 47, 8-Dimethylamino-2,7,8,9-tetrahydro-6-oxa-2-azabenzo[cd]-azulene-5-carbaldehyde Oxime]	–	78 nM	–
CN(C)C1COc2c(C#N)ccc3[nH]cc(c23)C1 (stereo not shown) [Compound 48, 8-Dimethylamino-2,7,8,9-tetrahydro-6-oxa-2-azabenzo[cd]-azulene-5-carbonitrile]	–	1 nM	–
